Reference: EP4722207A1, “OXOISOINDOLINYL-SUBSTITUTED TETRAHYDROPYRIMIDINEDIONE DERIVATIVE AND USE THEREOF” (Gluetacs Therapeutics (Shanghai) Co., Ltd., priority 2023, dated 2024)

Key:
WEE1 = target: T1, WEE1 (Homo sapiens, UniProt P30291+Q96SW2); experiment: Western-blot assay, substrate protein degradation in hPBMCs: WEE1; type: cell-based; conditions: 24 hours of compound treatment, 50 nM and 500 nM
T1 construct: effects of the compounds of the present disclosure on the expression of target proteins in cells; endogenous in cells; host or cells: human PBMCs (hPBMCs)

IKZF1 = target: T2, IKZF1 (Homo sapiens, UniProt Q13422+Q96SW2); experiment: Western-blot assay, substrate protein degradation in hPBMCs: IKZF1; type: cell-based; conditions: 24 hours of compound treatment, 50 nM and 500 nM
T2 construct: effects of the compounds of the present disclosure on the expression of target proteins in cells; endogenous in cells; host or cells: human PBMCs (hPBMCs)

IKZF2 = target: T3, IKZF2 (Homo sapiens, UniProt Q96SW2+Q9UKS7); experiment: Western-blot assay, substrate protein degradation in hPBMCs: IKZF2; type: cell-based; conditions: 24 hours of compound treatment, 50 nM and 500 nM
T3 construct: effects of the compounds of the present disclosure on the expression of target proteins in cells; endogenous in cells; host or cells: human PBMCs (hPBMCs)

IKZF3 = target: T4, IKZF3 (Homo sapiens, UniProt Q96SW2+Q9UKT9); experiment: Western-blot assay, substrate protein degradation in hPBMCs: IKZF3; type: cell-based; conditions: 24 hours of compound treatment, 50 nM and 500 nM
T4 construct: effects of the compounds of the present disclosure on the expression of target proteins in cells; endogenous in cells; host or cells: human PBMCs (hPBMCs)

CK1α = target: T5, CK1α (Homo sapiens, UniProt P48729+Q96SW2); experiment: Western-blot assay, substrate protein degradation in hPBMCs: CK1α; type: cell-based; conditions: 24 hours of compound treatment, 50 nM and 500 nM
T5 construct: effects of the compounds of the present disclosure on the expression of target proteins in cells; endogenous in cells; host or cells: human PBMCs (hPBMCs)

GSPT1 = target: T6, GSPT1 (Homo sapiens, UniProt P15170+Q96SW2); experiment: Western-blot assay, substrate protein degradation in hPBMCs: GSPT1; type: cell-based; conditions: 24 hours of compound treatment, 50 nM and 500 nM
T6 construct: effects of the compounds of the present disclosure on the expression of target proteins in cells; endogenous in cells; host or cells: human PBMCs (hPBMCs)

MM.1S = experiment: Cell viability assay (CellTiter-Meiluncell Luminescent), tumor cell proliferation, MM.1S; conditions: Homo sapiens, MM1.S, 96 h; for inhibition at 0.01 µM: read-out: Inhibition Rate at 10 nM (%); for inhibition at 0.5 µM: read-out: Inhibition Rate at 500 nM (%)
Procedure: (§1) The tumor cells used herein were cultured in a cell culture medium listed in table 2 at 37°C in an incubator with 5% CO2. Prior to experimentation, all cell lines used were correctly identified by STR profiling, and tested negative for mycoplasma contamination using a mycoplasma detection kit through routine screenings.
(§2) On the following day, the test compounds of the present disclosure were subjected to serial dilution. […] Subsequently, 0.5 µL of the test compound dilution was transferred into the 96-well plate containing the cells, with each well containing 100 µL of cell culture medium. […] Into the 96-well plate, the diluted test compounds and corresponding detection reagents were added, resulting in final test compound concentrations of 500 nM and 10 nM, respectively. The experimental procedure is described below using the diluted 2 µM test compound as an example.
(§3) After the cells were treated with the compounds of the present disclosure for a specified period, the cell viability assay reagent was added to the culture medium according to the kit's instructions to determine cell viability. […] All controls were treated using the same procedure as the compounds of the present disclosure. The growth inhibition curves for the compounds of the present disclosure were plotted using Prism GraphPad software, and the IC50 values were calculated therefrom.

H2228 = experiment: Cell viability assay (CellTiter-Meiluncell Luminescent), tumor cell proliferation, H2228; conditions: Homo sapiens, NCI-H2228, 96 h
MV-4-11 = experiment: Cell viability assay (CellTiter-Meiluncell Luminescent), tumor cell proliferation, MV-4-11; conditions: Homo sapiens, MV4-11, 96 h; for inhibition at 0.01 µM: read-out: Inhibition Rate at 10 nM (%); for inhibition at 0.5 µM: read-out: Inhibition Rate at 500 nM (%)
H292 = experiment: Cell viability assay (CellTiter-Meiluncell Luminescent), tumor cell proliferation, H292; conditions: Homo sapiens, NCI-H292, 96 h; for inhibition at 0.01 µM: read-out: Inhibition Rate at 10 nM (%); for inhibition at 0.5 µM: read-out: Inhibition Rate at 500 nM (%)
MDA-MB-231 = experiment: Cell viability assay (CellTiter-Meiluncell Luminescent), tumor cell proliferation, MDA-MB-231; conditions: Homo sapiens, MDA-MB-231, 96 h; for inhibition at 0.01 µM: read-out: Inhibition Rate at 10 nM (%); for inhibition at 0.5 µM: read-out: Inhibition Rate at 500 nM (%)
Procedure: as §1, §2, §3

T6 sequence (P15170 whole entry): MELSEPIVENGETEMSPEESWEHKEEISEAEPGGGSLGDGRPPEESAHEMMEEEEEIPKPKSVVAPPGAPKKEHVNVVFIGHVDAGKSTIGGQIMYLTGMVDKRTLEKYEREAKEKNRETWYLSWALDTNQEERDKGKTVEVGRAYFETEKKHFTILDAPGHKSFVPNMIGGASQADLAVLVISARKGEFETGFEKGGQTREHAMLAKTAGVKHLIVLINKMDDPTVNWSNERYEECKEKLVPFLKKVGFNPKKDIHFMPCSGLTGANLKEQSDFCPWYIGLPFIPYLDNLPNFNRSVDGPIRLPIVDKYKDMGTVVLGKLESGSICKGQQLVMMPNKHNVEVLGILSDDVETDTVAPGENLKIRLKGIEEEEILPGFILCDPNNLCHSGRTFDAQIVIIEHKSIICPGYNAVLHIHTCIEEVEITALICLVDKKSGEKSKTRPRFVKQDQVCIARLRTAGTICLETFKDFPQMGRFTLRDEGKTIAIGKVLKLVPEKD
T6 sequence (Q96SW2 whole entry): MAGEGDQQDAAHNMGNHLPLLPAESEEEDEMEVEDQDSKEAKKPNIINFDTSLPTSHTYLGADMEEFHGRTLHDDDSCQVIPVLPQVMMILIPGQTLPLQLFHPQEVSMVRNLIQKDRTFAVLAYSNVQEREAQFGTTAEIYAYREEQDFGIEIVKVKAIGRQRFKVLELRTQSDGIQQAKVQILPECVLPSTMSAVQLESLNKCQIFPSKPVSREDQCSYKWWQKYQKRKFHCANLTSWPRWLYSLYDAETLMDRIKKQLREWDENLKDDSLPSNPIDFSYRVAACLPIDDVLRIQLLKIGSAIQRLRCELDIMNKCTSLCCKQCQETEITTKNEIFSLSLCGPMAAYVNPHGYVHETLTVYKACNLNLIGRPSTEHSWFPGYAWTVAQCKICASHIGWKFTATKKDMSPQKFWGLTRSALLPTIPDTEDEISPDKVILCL
T6 sequence (Q16531 whole entry partner): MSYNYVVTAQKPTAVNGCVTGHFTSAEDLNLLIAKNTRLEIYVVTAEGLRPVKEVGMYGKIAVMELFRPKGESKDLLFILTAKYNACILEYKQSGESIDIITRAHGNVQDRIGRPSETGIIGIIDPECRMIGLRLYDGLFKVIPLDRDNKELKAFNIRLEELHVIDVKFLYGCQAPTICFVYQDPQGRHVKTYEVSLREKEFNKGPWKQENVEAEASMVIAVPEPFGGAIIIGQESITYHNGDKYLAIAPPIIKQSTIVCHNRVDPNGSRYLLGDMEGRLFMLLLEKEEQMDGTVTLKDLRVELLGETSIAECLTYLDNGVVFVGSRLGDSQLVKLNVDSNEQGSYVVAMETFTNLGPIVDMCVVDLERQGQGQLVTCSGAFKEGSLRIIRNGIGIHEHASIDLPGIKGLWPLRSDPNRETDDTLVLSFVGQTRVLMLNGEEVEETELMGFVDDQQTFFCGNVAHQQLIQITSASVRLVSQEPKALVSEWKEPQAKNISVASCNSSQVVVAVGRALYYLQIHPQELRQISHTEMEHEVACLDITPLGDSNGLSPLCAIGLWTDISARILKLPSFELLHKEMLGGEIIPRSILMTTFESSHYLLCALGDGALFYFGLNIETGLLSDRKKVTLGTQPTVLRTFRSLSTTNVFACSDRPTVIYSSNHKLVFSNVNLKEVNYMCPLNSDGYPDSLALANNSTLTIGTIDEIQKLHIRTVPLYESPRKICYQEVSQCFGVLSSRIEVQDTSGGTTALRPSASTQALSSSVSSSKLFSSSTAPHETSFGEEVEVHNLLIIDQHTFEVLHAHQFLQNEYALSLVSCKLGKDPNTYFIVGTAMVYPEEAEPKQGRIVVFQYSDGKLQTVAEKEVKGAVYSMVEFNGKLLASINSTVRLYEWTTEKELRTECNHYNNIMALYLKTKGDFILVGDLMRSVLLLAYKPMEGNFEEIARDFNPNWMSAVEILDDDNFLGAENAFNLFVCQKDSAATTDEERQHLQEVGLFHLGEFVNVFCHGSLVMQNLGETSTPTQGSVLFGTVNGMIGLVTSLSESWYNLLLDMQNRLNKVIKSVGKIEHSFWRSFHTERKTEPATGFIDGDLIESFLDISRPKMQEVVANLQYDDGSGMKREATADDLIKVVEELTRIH
T4 sequence (Q9UKT9 whole entry): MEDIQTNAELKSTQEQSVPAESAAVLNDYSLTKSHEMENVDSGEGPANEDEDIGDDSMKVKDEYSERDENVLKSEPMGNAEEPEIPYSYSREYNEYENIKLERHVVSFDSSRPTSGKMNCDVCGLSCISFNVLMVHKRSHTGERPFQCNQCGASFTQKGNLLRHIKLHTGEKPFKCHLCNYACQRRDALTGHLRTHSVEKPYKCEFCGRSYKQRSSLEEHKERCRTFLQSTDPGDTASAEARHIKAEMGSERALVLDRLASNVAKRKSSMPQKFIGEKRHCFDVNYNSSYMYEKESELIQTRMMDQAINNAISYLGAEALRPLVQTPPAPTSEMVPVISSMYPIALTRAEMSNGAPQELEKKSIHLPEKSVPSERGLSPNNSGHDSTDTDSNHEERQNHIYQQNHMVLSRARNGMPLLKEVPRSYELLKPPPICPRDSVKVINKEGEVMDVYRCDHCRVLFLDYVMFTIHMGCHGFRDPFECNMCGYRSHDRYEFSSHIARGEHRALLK
T4 sequence (Q96SW2 whole entry): as the sequence (Q96SW2 whole entry) above
T4 sequence (Q16531 whole entry partner): as the sequence (Q16531 whole entry partner) above
T3 sequence (Q9UKS7 whole entry): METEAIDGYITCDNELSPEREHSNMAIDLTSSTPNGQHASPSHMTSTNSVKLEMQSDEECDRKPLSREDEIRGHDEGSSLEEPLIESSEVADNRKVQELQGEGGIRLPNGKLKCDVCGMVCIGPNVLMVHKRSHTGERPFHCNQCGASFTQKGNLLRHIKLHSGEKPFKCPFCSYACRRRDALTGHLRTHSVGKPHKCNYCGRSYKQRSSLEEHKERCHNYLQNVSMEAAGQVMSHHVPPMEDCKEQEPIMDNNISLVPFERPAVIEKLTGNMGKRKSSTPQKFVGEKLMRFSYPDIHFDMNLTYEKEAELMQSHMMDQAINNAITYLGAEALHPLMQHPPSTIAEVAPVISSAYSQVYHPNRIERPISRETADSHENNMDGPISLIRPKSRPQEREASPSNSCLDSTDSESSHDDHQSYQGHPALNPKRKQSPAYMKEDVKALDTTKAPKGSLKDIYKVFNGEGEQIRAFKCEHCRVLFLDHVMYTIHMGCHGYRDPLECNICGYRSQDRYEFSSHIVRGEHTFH
T3 sequence (Q96SW2 whole entry): as the sequence (Q96SW2 whole entry) above
T3 sequence (Q16531 whole entry partner): as the sequence (Q16531 whole entry partner) above
T5 sequence (P48729 whole entry): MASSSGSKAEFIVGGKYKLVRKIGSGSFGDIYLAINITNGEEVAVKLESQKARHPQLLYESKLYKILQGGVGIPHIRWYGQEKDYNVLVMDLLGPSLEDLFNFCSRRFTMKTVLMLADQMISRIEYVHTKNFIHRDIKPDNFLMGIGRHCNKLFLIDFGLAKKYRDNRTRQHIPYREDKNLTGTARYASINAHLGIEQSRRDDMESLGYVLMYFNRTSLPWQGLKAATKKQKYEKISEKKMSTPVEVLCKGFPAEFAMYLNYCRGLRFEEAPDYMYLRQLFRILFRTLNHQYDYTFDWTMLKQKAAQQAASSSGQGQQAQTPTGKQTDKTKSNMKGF
T5 sequence (Q96SW2 whole entry): as the sequence (Q96SW2 whole entry) above
T5 sequence (Q16531 whole entry partner): as the sequence (Q16531 whole entry partner) above
T1 sequence (P30291 whole entry): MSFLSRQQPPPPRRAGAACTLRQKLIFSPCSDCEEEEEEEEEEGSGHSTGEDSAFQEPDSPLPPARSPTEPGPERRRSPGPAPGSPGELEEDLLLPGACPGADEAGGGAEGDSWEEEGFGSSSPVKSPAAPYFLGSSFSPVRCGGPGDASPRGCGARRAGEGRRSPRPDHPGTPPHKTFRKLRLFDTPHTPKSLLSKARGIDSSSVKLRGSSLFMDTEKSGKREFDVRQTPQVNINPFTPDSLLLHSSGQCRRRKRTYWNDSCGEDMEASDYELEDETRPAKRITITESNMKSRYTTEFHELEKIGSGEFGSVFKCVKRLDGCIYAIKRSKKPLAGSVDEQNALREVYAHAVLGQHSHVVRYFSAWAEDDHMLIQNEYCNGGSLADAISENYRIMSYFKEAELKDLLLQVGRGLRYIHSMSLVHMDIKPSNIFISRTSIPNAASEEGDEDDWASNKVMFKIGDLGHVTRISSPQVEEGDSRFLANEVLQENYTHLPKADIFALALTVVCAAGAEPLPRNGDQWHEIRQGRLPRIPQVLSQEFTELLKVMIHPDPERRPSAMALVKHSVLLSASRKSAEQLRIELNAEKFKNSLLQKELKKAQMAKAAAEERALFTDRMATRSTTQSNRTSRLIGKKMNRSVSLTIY
T1 sequence (Q96SW2 whole entry): as the sequence (Q96SW2 whole entry) above
T1 sequence (Q16531 whole entry partner): as the sequence (Q16531 whole entry partner) above

Row | Structure (SMILES) | substrate protein remaining % WEE1 (WEE1) | substrate protein remaining % IKZF1 (IKZF1) | substrate protein remaining % IKZF2 (IKZF2) | substrate protein remaining % IKZF3 (IKZF3) | substrate protein remaining % CK1α (CK1α) | substrate protein remaining % GSPT1 (GSPT1) | IC50 (MM.1S; read-out: inhibitory activity (IC50, nM) against tumor cells proliferation, MM.1S) | inhibition at 0.01 µM (H2228; read-out: Inhibition Rate at 10 nM (%)) | inhibition at 0.5 µM (H2228; read-out: Inhibition Rate at 500 nM (%)) | inhibition at 0.01 µM (MV-4-11) | inhibition at 0.5 µM (MV-4-11) | inhibition at 0.01 µM (MM.1S) | inhibition at 0.5 µM (MM.1S) | inhibition at 0.01 µM (H292) | inhibition at 0.5 µM (H292) | inhibition at 0.01 µM (MDA-MB-231) | inhibition at 0.5 µM (MDA-MB-231)
1 | Cc1ccc(C2CCN(Cc3ccc4c(c3)CN(N3CCC(=O)NC3=O)C4=O)CC2)s1 [GT-07425, 1-(5-((4-(5-methylthiophen-2-yl)piperidin-1-yl)methyl)-1-oxoisoindolin-2-yl)dihydropyrimidine-2,4(1H,3H)-dione] | B (80%< substrate protein remaining %≤ 100%) | B (80%< substrate protein remaining %≤ 100%) | B (80%< substrate protein remaining %≤ 100%) | B (80%< substrate protein remaining %≤ 100%) | B (80%< substrate protein remaining %≤ 100%) | A (0% ≤ substrate protein remaining % ≤ 80%) | 500 to 1000 nM | – | – | – | – | – | – | – | – | – | –
2 | O=C1CCN(N2C(=O)c3ccc(CN4CCN(c5ncnc6scc(-c7ccccc7)c56)CC4)cc3C2=O)C(=O)N1 [GT-08098, 2-(2,4-dioxotetrahydropyrimidin-1(2H)-yl)-5-((4-(5-phenylthieno[2,3-d]pyrimidin-4-yl)piperazin-1-yl)methyl)isoindoline-1,3-dione] | B (80%< substrate protein remaining %≤ 100%) | B (80%< substrate protein remaining %≤ 100%) | B (80%< substrate protein remaining %≤ 100%) | B (80%< substrate protein remaining %≤ 100%) | B (80%< substrate protein remaining %≤ 100%) | A (0% ≤ substrate protein remaining % ≤ 80%) | – | 10 to 15% | 25 to 30% | 18 to 25% | 18 to 25% | – | – | – | – | – | –
3 | Cc1nc(N2CCN(Cc3ccc4c(c3)C(=O)N(N3CCC(=O)NC3=O)C4=O)CC2)c2c3c(sc2n1)CCC3 [GT-08104, 2-(2,4-dioxotetrahydropyrimidin-1(2H)-yl)-5-((4-(2-methyl-6,7-dihydro-5H-cyclopenta[4,5]thieno[2,3-d]pyrimidin-4-yl)piperazin-1-yl)methyl)isoindoline-1,3-dione] | A (0% ≤ substrate protein remaining % ≤ 80%) | B (80%< substrate protein remaining %≤ 100%) | A (0% ≤ substrate protein remaining % ≤ 80%) | A (0% ≤ substrate protein remaining % ≤ 80%) | B (80%< substrate protein remaining %≤ 100%) | A (0% ≤ substrate protein remaining % ≤ 80%) | – | – | – | 40 to 60% | 40 to 60% | 20 to 30% | 30 to 42% | – | – | – | –
4 | Cc1cc2c(C3=CCN(Cc4ccc5c(c4)CN(N4CCC(=O)NC4=O)C5=O)CC3)ncnc2s1 [GT-08157, 1-(5-((4-(6-methylthieno[2,3-d]pyrimidin-4-yl)-3,6-dihydropyridin-1(2H)-yl)methyl)-1-oxoisoindolin-2-yl)dihydropyrimidine-2,4(1H,3H)-dione] | – | – | – | – | – | – | – | – | – | 18 to 25% | 80 to 100% | -5 to 0% | 80 to 100% | 20 to 40% | 15 to 20% | 15 to 18% | 25 to 40%
5 | Cc1nc(C2=CCN(Cc3ccc4c(c3)CN(N3CCC(=O)NC3=O)C4=O)CC2)c2ccsc2n1 [GT-08175, 1-(5-((4-(2-methylthieno[2,3-d]pyrimidin-4-yl)-3,6-dihydropyridin-1(2H)-yl)methyl)-1-oxoisoindolin-2-yl)dihydropyrimidine-2,4(1H,3H)-dione] | – | – | – | – | – | – | – | – | – | 18 to 25% | 80 to 100% | -10 to -5% | 80 to 100% | – | – | – | –
6 | O=C1CCN(N2Cc3cc(CN4CC=C(c5ncnc6sc7c(c56)CCCC7)CC4)ccc3C2=O)C(=O)N1 [GT-08178, 1-(1-oxo-5-((4-(5,6,7,8-tetrahydrobenzo[4,5]thieno[2,3-d]pyrimidin-4-yl)-3,6-dihydropyridin-1(2H)-yl)methyl)isoindolin-2-yl)dihydropyrimidine-2,4(1H,3H)-dione] | – | – | – | – | – | – | – | – | – | 60 to 80% | 80 to 100% | 60 to 80% | 60 to 80% | 40 to 60% | 20 to 40% | 18 to 25% | 18 to 25%
7 | O=C1CCN(N2C(=O)c3ccc(CN4CC=C(c5ncnc6sc7c(c56)CCCC7)CC4)cc3C2=O)C(=O)N1 [GT-08433, 2-(2,4-dioxotetrahydropyrimidin-1(2H)-yl)-5-((4-(5,6,7,8-tetrahydrobenzo[4,5]thieno[2,3-d]pyrimidin-4-yl)-3,6-dihydropyridin-1(2H)-yl)methyl)isoindoline-1,3-dione] | B (80%< substrate protein remaining %≤ 100%) | B (80%< substrate protein remaining %≤ 100%) | B (80%< substrate protein remaining %≤ 100%) | A (0% ≤ substrate protein remaining % ≤ 80%) | A (0% ≤ substrate protein remaining % ≤ 80%) | A (0% ≤ substrate protein remaining % ≤ 80%) | – | – | – | – | – | 20 to 30% | 30 to 42% | 20 to 40% | 15 to 20% | – | –
8 | O=C1CCN(N2Cc3cc(CN4CC=C(c5ncc6ccsc6n5)CC4)ccc3C2=O)C(=O)N1 [GT-08438, 1-(1-oxo-5-((4-(thieno[2,3-d]pyrimidin-2-yl)-3,6-dihydropyridin-1(2H)-yl)methyl)isoindolin-2-yl)dihydropyrimidine-2,4(1H,3H)-dione] | A (0% ≤ substrate protein remaining % ≤ 80%) | A (0% ≤ substrate protein remaining % ≤ 80%) | B (80%< substrate protein remaining %≤ 100%) | A (0% ≤ substrate protein remaining % ≤ 80%) | B (80%< substrate protein remaining %≤ 100%) | A (0% ≤ substrate protein remaining % ≤ 80%) | – | – | – | – | – | 20 to 30% | 80 to 100% | 20 to 40% | 10 to 15% | – | –
9 | O=C1CCN(N2Cc3cc(CN4CCN(c5nc(N6CCOCC6)nc6ccsc56)CC4)ccc3C2=O)C(=O)N1 [GT-08446, 1-(5-((4-(2-morpholinothieno[3,2-d]pyrimidin-4-yl)piperazin-1-yl)methyl)-1-oxoisoindolin-2-yl)dihydropyrimidine-2,4(1H,3H)-dione] | B (80%< substrate protein remaining %≤ 100%) | B (80%< substrate protein remaining %≤ 100%) | B (80%< substrate protein remaining %≤ 100%) | A (0% ≤ substrate protein remaining % ≤ 80%) | B (80%< substrate protein remaining %≤ 100%) | A (0% ≤ substrate protein remaining % ≤ 80%) | – | – | – | – | – | 42 to 60% | 30 to 42% | 20 to 40% | 20 to 40% | – | –
10 | Cc1nc(C2=CCN(Cc3ccc4c(c3)C(=O)N(N3CCC(=O)NC3=O)C4=O)CC2)c2c(-c3ccccc3)csc2n1 [GT-08484, 2-(2,4-dioxotetrahydropyrimidin-1(2H)-yl)-5-((4-(2-methyl-5-phenylthieno[2,3-d]pyrimidin-4-yl)-3,6-dihydropyridin-1(2H)-yl)methyl)isoindoline-1,3-dione] | A (0% ≤ substrate protein remaining % ≤ 80%) | A (0% ≤ substrate protein remaining % ≤ 80%) | A (0% ≤ substrate protein remaining % ≤ 80%) | A (0% ≤ substrate protein remaining % ≤ 80%) | A (0% ≤ substrate protein remaining % ≤ 80%) | A (0% ≤ substrate protein remaining % ≤ 80%) | – | – | – | – | – | 42 to 60% | 20 to 30% | 20 to 40% | 15 to 20% | – | –
